Reference: EP0403957A2, “Optical active 1,4-dihydropyridine derivates” (FUJIREBIO INC., priority 1989, dated 1990)
Where two headings read alike, the source gives them in different places.

How the values were obtained:
[1] = tested on: thoracic aortas of rabbits; assay: Test for activity of inhibiting KCl-induced contraction; type: cell-based, rabbits (Japanese white rabbit; male); details: 3x10⁻⁶ M compound; 30 mM KCl; helical strips in Krebs-Henseleit solution at 37°C; determined in 60 minutes
Description: Herical strips of thoracic aortas of rabbits (Japanese white rabbit; male) were mounted vertically in organ baths of Krebs-Henselit solution at 37°C for 90 minutes, and then 30 mM of KCl was added to the baths. After 30 minutes, the compound to be tested was added to the baths, and the variations in the tension were recorded by an isometric kymograph, so that the inhibitory activity of the compound was determined in 60 minutes.

[2] = tested on: spontaneously hypertensive rats (aparalytic SHR; male); assay: Test for hypotensive activity; type: in vivo; details: for HR / T 1/2 / Peak: 300 µg/kg into the abdominal aorta of SHR; for MaxΔMBP: 300 µg/kg into the abdominal aorta of SHR through a canula, blood pressure by pressure transducer; for T 1/2: half time of the hypotensive effect; for Peak: time of peak of the hypotensive effect
Description: The test was carried out by employing spontaneously hypertensive rats (aparalytic SHR; male) according to Nakao et al method.
300 µg/kg of the compound to be tested was administrated into the abdominal aorta of SHR through a canula (previously inserted). The blood pressures in the whole body of the rats were measured with a pressure transducer (MPU-0.5, made by Nihon Koden K.K.).

platelet rich plasma = assay: Test for platelet aggregation-inhibiting activity in rabbit platelet rich plasma; type: cell-based, rabbit (Japanese white; male); details: Oryctolagus cuniculus, 0.5 h, 30 minutes incubation in PRP
Description: The mixture was centrifuged at 1100 rpm at 20°C for 15 minutes. The upper layer is a platelet rich plasma (RRP), and the lower layer was centrifuged at 2500 rpm at 20°C for 10 minutes, so that a platelet poor plasma (PPP) was obtained.
10 µℓ of a solution of the compound to be tested with a concentration of 10⁻⁴ moℓ/ℓ was added to 200 µℓ of PRP, and the mixture was subjected to incubation for 30 minutes. To the mixture was added 10 µℓ of a platelet activating factor (PAF)(10 µg/mℓ), or arachidonic acid (AA)(1 mM at final concentration). The extent of the aggregation was measured by Agricometer (NKK, PAT-4A).

IC50 (platelet rich plasma; aggregation induced by platelet activating factor (PAF) 10 µg/ml, read-out: IC₅₀ (M) PAF(10 µg/ml)) [M]	IC50 (platelet rich plasma; Platelet, aggregation induced by arachidonic acid (AA) 1 mM at final concentration, read-out: IC₅₀ (M) AA(1 mM)) [M]	Molecule	Inhibitory Effect on KCℓ-induced contraction(%) [1] [%]	HR [2] [beats/min]	MaxΔMBP [2] [mmHg]	T 1/2 [2] [min]	Peak [2] [min]
0.00011	0.00014	COC(=O)C1=C(C)NC(C)=C(C(=O)OC/C=C/c2ccc(Cn3ccnc3)cc2)C1c1cccc([N+](=O)[O-])c1 (single isomer, unassigned; (+)) [Example 36, (+)-3-[4-(1-imidazolylmethyl)phenyl]-2-propen-1-yl methyl-1,4-dihydro-2,6-dimethyl-4-(3-nitrophenyl)pyridine-3,5-dicarboxylate]	51.1 ± 11.6	49.0	51.4	3.4	0.9
–	–	(-)-3-[4-(-(1-imidazolylmethyl)phenyl]-2-propen-1-yl methyl-1, 4-dihydro-2,6-dimethyl-4-(3-nitrophenyl)pyridine-3,5-dicarboxylate [Example 37]	16.8 ± 9.8	3.7	10.8	0.4	0.6
